According to PubChem BioAssay AID256 (DTP/NCI, 2004):
Several values for one entry are separate records, joined by “and”; a condition that tells them apart may be missing. Equal entries are not always repeated. Toxic doses and inconclusive results are not listed. Rule for the calls: active = survival T/C of 150% or more; inactive = T/C below 125% in these data.

Test system: CD2F1 mice, L1210 leukemia ip, survival T/C
Experiment: NCI In Vivo Anticancer Drug Screen. Data for tumor model L1210 Leukemia (intraperitoneal) in CD2F1 (CDF1) mice
Conditions: endpoint: mean survival time, higher = longer survival
How it was run: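 Compound-dosed mice with transplantable tumor versus matched vehicle controls; endpoint ratio T/C reported.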

[1] = dose: 50.0 mg/kg/injection, schedule: Q01DX001 (ip), vehicle: saline
[2] = dose: 100.0 mg/kg/injection, schedule: Q01DX001 (ip), vehicle: saline
[3] = dose: 100.0 mg/kg/injection, schedule: Q01DX009 (ip), vehicle: saline with Tween-80
[4] = dose: 200.0 mg/kg/injection, schedule: Q01DX009 (ip), vehicle: saline with Tween-80

Measured: T/C

CCCCNC(C)(C)C(SSSC(c1ccc(Cl)cc1)C(C)(C)NCCCC)c1ccc(Cl)cc1 (stereo not drawn)
inactive: dose: 12.0 mg/kg/injection, schedule: Q04DX003 (ip), vehicle: other 97 % of control | dose: 25.0 mg/kg/injection, schedule: Q04DX003 (ip), vehicle: other 105 % of control | dose: 50.0 mg/kg/injection, schedule: Q04DX003 (ip), vehicle: other 96 % of control

CN(N=O)c1nnnn1C
inactive: dose: 100.0 mg/kg/injection, schedule: Q04DX003 (ip), vehicle: saline 105 % of control | dose: 200.0 mg/kg/injection, schedule: Q04DX003 (ip), vehicle: saline 103 % of control | dose: 400.0 mg/kg/injection, schedule: Q04DX003 (ip), vehicle: saline 106 % of control

Nc1ccnc(SCCCOc2ccccc2)n1
inactive: dose: 100.0 mg/kg/injection, schedule: Q04DX002 (ip), vehicle: saline with Tween-80 104 % of control | dose: 200.0 mg/kg/injection, schedule: Q04DX002 (ip), vehicle: saline with Tween-80 101 % of control | dose: 400.0 mg/kg/injection, schedule: Q04DX002 (ip), vehicle: saline with Tween-80 97 % of control

Cc1ccc(-c2csc(/N=C/c3ccccc3O)n2)cc1.Cc1ccc(-c2csc(/N=C/c3ccccc3O)n2)cc1.[Cu]
inactive: dose: 25.0 mg/kg/injection, schedule: Q01DX001 (ip), vehicle: saline 91 % of control | [1] 96 % of control | dose: 100.0 mg/kg/injection, schedule: Q01DX001 (ip), vehicle: saline with Tween-80 86 % of control | [2] 87 % of control | dose: 400.0 mg/kg/injection, schedule: Q01DX001 (ip), vehicle: saline with Tween-80 93 % of control

Cc1ccc(C(=O)CCCCl)cc1C
inactive: [3] 104 % of control | [4] 96 % of control | dose: 400.0 mg/kg/injection, schedule: Q01DX009 (ip), vehicle: saline with Tween-80 98 % of control

CC(=O)ON=C1C=CC(=C(C#N)c2ccccc2)C=C1
inactive: [1] 96 % of control | dose: 50.0 mg/kg/injection, schedule: Q01DX009 (ip), vehicle: saline with Tween-80 97 % of control and 101 % of control | [2] 98 % of control | [3] 98 % of control and 100 % of control | dose: 100.0 mg/kg/injection, schedule: Q04DX003 (ip), vehicle: saline with Tween-80 91 % of control | dose: 200.0 mg/kg/injection, schedule: Q01DX001 (ip), vehicle: saline 95 % of control | [4] 93 % of control and 101 % of control | dose: 200.0 mg/kg/injection, schedule: Q04DX003 (ip), vehicle: saline with Tween-80 95 % of control | dose: 400.0 mg/kg/injection, schedule: Q01DX001 (ip), vehicle: saline 90 % of control | dose: 400.0 mg/kg/injection, schedule: Q04DX003 (ip), vehicle: saline with Tween-80 105 % of control

N=C(N)Sc1ccccn1
inactive: dose: 12.5 mg/kg/injection, schedule: Q01DX009 (ip), vehicle: suspension in saline 98 % of control | dose: 25.0 mg/kg/injection, schedule: Q01DX009 (ip), vehicle: suspension in saline 108 % of control | dose: 50.0 mg/kg/injection, schedule: Q01DX009 (ip), vehicle: suspension in saline 93 % of control | dose: 100.0 mg/kg/injection, schedule: Q01DX009 (ip), vehicle: suspension in saline 93 % of control | dose: 200.0 mg/kg/injection, schedule: Q01DX009 (ip), vehicle: suspension in saline 87 % of control | dose: 400.0 mg/kg/injection, schedule: Q01DX009 (ip), vehicle: suspension in saline 90 % of control
